Measurements from patent publication US20230000853A1, “PHARMACEUTICAL COMPOSITION CONTAINING NITROXOLINE, NITROXOLINE TABLET, PREPARATION METHOD THEREFOR AND USE THEREOF” (JIANGSU YAHONG MEDITECH CO., LTD., priority 2019, published 2023).

Assays:
[1] = Particle size determination by Malvern laser particle size analyzer, wet method; assay type: physicochemical; settings: pulverized raw material; dispersant 0.5% aqueous Tween 80
Description: The initial particle size D90 of the raw material nitroxoline or nitroxoline lysine salt was more than 100 μm. The raw material was pulverized with the mechanical mill to obtain the raw material having the particle size I, II, III or V in the following Table 1. The raw material was pulverized with the jet mill to obtain the raw material having the particle size IV in the following Table 1.
Determination was carried out on the Malvern laser particle size analyzer MS2000 by wet method according to the operation requirements of the instrument, the dispersant was an aqueous Tween 80 solution, and the mass fraction of Tween 80 in the aqueous solution was 0.5%.

[2] = Solubility and dissolution of nitroxoline in aqueous media; assay type: physicochemical; settings: 0.1 mol/L hydrochloric acid, water and phosphate buffer (pH 6.8) at 37° C.
Source text: In addition, the resulting nitroxoline tablets have uniform content, narrow variation range in hardness, and good fluidity and compressibility.

[3] = biological target: T1, methionine aminopeptidase MetAP2 (Homo sapiens, UniProt P50579); settings: vascular endothelial cells; cited from earlier work
T1 construct: host or cells: vascular endothelial cells
T1 sequence (P50579 whole entry): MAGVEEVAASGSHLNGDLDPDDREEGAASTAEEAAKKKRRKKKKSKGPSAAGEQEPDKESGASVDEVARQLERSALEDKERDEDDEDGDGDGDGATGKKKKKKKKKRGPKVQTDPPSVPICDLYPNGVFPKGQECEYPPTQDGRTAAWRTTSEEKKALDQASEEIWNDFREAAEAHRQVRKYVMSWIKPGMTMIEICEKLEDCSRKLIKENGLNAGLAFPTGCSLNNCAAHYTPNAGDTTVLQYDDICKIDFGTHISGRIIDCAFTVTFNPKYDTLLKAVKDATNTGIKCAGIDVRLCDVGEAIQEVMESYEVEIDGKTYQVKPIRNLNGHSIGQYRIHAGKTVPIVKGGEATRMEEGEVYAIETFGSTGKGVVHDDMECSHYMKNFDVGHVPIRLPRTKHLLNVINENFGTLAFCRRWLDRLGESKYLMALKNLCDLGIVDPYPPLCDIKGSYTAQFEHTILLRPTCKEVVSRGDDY

[4] = low solubility and high permeability; cited from earlier work
[5] = biological target: T2, silence information regulator 2-related enzyme SIRT1 (Homo sapiens, UniProt Q96EB6); settings: vascular endothelial cells; cited from earlier work
T2 construct: host or cells: vascular endothelial cells
T2 sequence (Q96EB6 1-747): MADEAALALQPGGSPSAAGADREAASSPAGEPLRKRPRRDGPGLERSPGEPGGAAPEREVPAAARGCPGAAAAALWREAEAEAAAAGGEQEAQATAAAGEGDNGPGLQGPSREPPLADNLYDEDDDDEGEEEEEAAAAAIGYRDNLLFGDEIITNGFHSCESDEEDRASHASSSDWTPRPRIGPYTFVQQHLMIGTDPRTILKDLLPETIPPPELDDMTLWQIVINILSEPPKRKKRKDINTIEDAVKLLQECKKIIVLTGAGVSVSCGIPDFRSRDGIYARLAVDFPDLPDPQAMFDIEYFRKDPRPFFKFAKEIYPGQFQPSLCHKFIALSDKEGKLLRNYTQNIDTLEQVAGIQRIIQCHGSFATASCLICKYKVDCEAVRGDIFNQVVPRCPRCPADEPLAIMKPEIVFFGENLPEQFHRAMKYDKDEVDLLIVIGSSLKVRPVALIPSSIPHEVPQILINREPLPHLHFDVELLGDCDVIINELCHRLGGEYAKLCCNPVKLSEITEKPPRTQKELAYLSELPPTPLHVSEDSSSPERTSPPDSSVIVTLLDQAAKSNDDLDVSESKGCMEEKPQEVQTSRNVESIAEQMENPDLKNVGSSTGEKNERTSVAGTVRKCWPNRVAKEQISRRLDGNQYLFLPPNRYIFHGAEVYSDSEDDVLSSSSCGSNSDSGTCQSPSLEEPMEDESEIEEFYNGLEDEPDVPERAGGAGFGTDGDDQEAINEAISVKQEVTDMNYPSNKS

| Compound | Particle size D10 [1] [μm] | Particle size D50 [1] [μm] | Particle size D90 [1] [μm] | Solubility and dissolution [2] | Inhibition of MetAP2 [3] | BCS class [4] | Inhibition of SIRT1 [5] |
| --- | --- | --- | --- | --- | --- | --- | --- |
| NCCCC[C@H](N)C(=O)O.O=[N+]([O-])c1ccc(O)c2ncccc12 [V (Nitroxoline lysine salt), Nitroxoline lysine salt] | 3.67 | 10.88 | 43.29 |  |  |  |  |
| O=[N+]([O-])c1ccc(O)c2ncccc12 [I (Nitroxoline), Nitroxoline] | 5.66 | 33.60 | 99.31 |  |  |  |  |
| O=[N+]([O-])c1ccc(O)c2ncccc12 [III (Nitroxoline), Nitroxoline] | 3.44 | 11.02 | 42.55 |  |  |  |  |
| O=[N+]([O-])c1ccc(O)c2ncccc12 [nitroxoline, 5-nitro-8-hydroxyquinoline] |  |  |  | low solubility and slow dissolution | inhibit | BCS class II | inhibit |
| O=[N+]([O-])c1ccc(O)c2ncccc12 [IV (Nitroxoline), Nitroxoline] | 0.12 | 4.58 | 12.61 |  |  |  |  |
| O=[N+]([O-])c1ccc(O)c2ncccc12 [II (Nitroxoline), Nitroxoline] | 3.99 | 14.95 | 70.58 |  |  |  |  |
